In brackets after ≈: the same amount, converted by molar mass. Where two headings read alike, the source gives them in different places.
What was measured:
[1] = test system: coagulase-negative staphylococci; experiment: Biofilm formation inhibition, quantification of total biomass by violet crystal staining; type: cell-based; conditions: for IC50: read-out: calculated concentration that inhibits the biofilm formation by 50%
Protocol: The biofilm forming ability of coagulase-negative staphylococci, when exposed to compounds 1, 2, 9 and 16, was assessed by quantification of total biomass by violet crystal staining.

[2] = test system: Staphylococcus aureus S54F9; experiment: Broth microdilution antibiotic susceptibility test; type: cell-based
Protocol: The methanolic extract was submitted to solid phase extraction (Waters Sep-Pak® Vac 35 cc 10 g C18 Cartridges) using mixtures of water/methanol (4:1 to 1:4; 4 to 8 column volumes each), yielding an enriched fraction free of chlorophylls and other pigments. The fraction was then chromatographed using semi-preparative HPLC conditions with a gradient of water/acetonitrile 19:1 to 0:1 (both with 0.1% of formic acid) as mobile phase. Fractions were collected every 30 s (total run time of 70 min) and 140 fractions were collected into 96-well deep well plates, and a 25% of a 67 mg 140-well fractionation was tested against Staphylococcus aureus S54F9. In order to carry out this broth microdilution antibiotic susceptibility test, 50 μL of each HPLC fraction resuspended in 14% MeOH in water were mixed with 50 μL of the S. aureus suspension at 10^6 CFU/mL in 2×MHB in a microtiter plate (final desired inoculum=5·10^5 CFU/mL, final concentration of MeOH in bioassay plate=7%, final volume per well=100 μL). The microtiter plate was replicated onto a selective/differential solid medium (Manitol Salt Agar) in order to distinguish between bacteriostatic and bactericidal activities. Growth controls (broth with bacterial inoculum, no bioactive molecule) as well as sterility (broth only) and solvent controls (broth with 7% MeOH in water) were included.

[3] = coagulase-negative staphylococci biofilm
[4] = S54F9, calculated from the antibiotic activities of the fractions in FIG. 1, range across compounds 1, 2, 9 and 16, read-out: predicted minimal inhibitory concentrations (MICs) against S. aureus

Structure (SMILES): CCCCCCC(Cl)CCCCC(=O)O[C@@H](C)C(=O)O (stereo partly drawn) [Compound 2, (S)-2-[(6-chlorododecanoyl)oxy]propanoic acid]
- inhibition at 16 µg/mL ([1]; biofilm formation, 16 mg/L): 0%
- inhibition at 32.12 µg/mL ([1]; biofilm formation, 32.12 mg/L): 31%
- inhibition at 64.25 µg/mL ([1]; biofilm formation, 64.25 mg/L): 74%
- inhibition at 128.5 µg/mL ([1]; biofilm formation, 128.5 mg/L): 89%
- inhibition at 257 µg/mL ([1]; biofilm formation, 257 mg/L): 90%
- IC50 [1, 3]: 94.6 µg/mL (≈ 308 µM)
- MIC [2, 4]: 1790 to 5790 µg/mL (≈ 5830 to 18900 µM)

Structure (SMILES): C[C@H](OC(=O)CCCCCCCCCCCCl)C(=O)O [Compound 1, (S)-2-[(12-chlorododecanoyl)oxy]propanoic acid]
- inhibition at 70 µg/mL ([1]; biofilm formation, 70 mg/L): 0%
- inhibition at 140 µg/mL ([1]; biofilm formation, 140 mg/L): 74%
- IC50 [1, 3]: 55.1 µg/mL (≈ 180 µM)
- MIC [2, 4]: 1790 to 5790 µg/mL (≈ 5830 to 18900 µM)

Structure (SMILES): C[C@H](OC(=O)CCCCC(Cl)CCCCCC(Cl)Cl)C(=O)O (stereo partly drawn) [Compound 16, (S)-2-[(6,12,12-trichlorododecanoyl)oxy]propanoic acid]
- inhibition at 37.5 µg/mL [1]: 0%
- inhibition at 75 µg/mL [1]: 68%
- inhibition at 150 µg/mL [1]: 71%
- IC50 [1]: 43.4 µg/mL (≈ 116 µM)
- MIC ([2]; S54F9, read-out: predicted minimal inhibitory concentrations (MICs) against S. aureus): 1790 to 5790 µg/mL (≈ 4760 to 15400 µM)

Structure (SMILES): C[C@H](OC(=O)CCCCC(Cl)CCCCCCCl)C(=O)O (stereo partly drawn) [Compound 9, (S)-2-[(6,12-dichlorododecanoyl)oxy]propanoic acid]
- inhibition at 5.65 µg/mL ([1]; biofilm formation, 5.65 mg/L): 0%
- inhibition at 11.25 µg/mL ([1]; biofilm formation, 11.25 mg/L): 22%
- inhibition at 22.5 µg/mL ([1]; biofilm formation, 22.5 mg/L): 56%
- inhibition at 35 µg/mL ([1]; biofilm formation, 35 mg/L): 62%
- inhibition at 90 µg/mL ([1]; biofilm formation, 90 mg/L): 66%
- inhibition at 180 µg/mL ([1]; biofilm formation, 180 mg/L): 76%
- inhibition at 360 µg/mL ([1]; biofilm formation, 360 mg/L): 87%
- inhibition at 721 µg/mL ([1]; biofilm formation, 721 mg/L): 88%
- IC50 [1, 3]: 20.1 µg/mL (≈ 58.9 µM)
- MIC [2, 4]: 1790 to 5790 µg/mL (≈ 5250 to 17000 µM)
